One may read the IC50 as the concentration needed to halve the response being measured. Lower therefore signals greater potency.

A value given as a limit tells only on which side of the number the result lay.

Results on 11 compounds are retold here after patent publication US10023570B2 (Array BioPharma, Inc., priority 2015, dated 2018).

This assay deals with human KDR protein in HEK-293 cells (Homo sapiens (Human), UniProt P35968). Description: KDR Cell Assay (phospho-KDR in HEK-293 cells expressing inducible KDR). The class given is cell-based. The conditions noted are these: pKDR Cell HEK 10% FBS IC50, HEK-293 cells expressing inducible KDR, VEGF stimulated. The procedure: The cellular potency of a compound inhibiting KDR kinase was determined in HEK-293 cells expressing an inducible human KDR protein. […] The cells were incubated for 1 hour with test compound in DMEM at a final DMSO concentration of 0.25%. […] The media was aspirated and 35 μL of a 1× lysis buffer was added. […] The lysate was stored at −80° C. until ready for assay. Phospho-KDR was measured using a phospho-KDR kit (Catalog #K151BOC) purchased from Meso Scale Diagnostics (Rockville, Md.) according to the manufacturer's instructions. All values are expressed as percent of percent of control (POC). The POC values were fitted to a 4 parameter logistic curve fit and the IC50 value is point where the curve crosses 50 POC.
human KDR protein in HEK-293 cells, sequence (P35968 20-1356): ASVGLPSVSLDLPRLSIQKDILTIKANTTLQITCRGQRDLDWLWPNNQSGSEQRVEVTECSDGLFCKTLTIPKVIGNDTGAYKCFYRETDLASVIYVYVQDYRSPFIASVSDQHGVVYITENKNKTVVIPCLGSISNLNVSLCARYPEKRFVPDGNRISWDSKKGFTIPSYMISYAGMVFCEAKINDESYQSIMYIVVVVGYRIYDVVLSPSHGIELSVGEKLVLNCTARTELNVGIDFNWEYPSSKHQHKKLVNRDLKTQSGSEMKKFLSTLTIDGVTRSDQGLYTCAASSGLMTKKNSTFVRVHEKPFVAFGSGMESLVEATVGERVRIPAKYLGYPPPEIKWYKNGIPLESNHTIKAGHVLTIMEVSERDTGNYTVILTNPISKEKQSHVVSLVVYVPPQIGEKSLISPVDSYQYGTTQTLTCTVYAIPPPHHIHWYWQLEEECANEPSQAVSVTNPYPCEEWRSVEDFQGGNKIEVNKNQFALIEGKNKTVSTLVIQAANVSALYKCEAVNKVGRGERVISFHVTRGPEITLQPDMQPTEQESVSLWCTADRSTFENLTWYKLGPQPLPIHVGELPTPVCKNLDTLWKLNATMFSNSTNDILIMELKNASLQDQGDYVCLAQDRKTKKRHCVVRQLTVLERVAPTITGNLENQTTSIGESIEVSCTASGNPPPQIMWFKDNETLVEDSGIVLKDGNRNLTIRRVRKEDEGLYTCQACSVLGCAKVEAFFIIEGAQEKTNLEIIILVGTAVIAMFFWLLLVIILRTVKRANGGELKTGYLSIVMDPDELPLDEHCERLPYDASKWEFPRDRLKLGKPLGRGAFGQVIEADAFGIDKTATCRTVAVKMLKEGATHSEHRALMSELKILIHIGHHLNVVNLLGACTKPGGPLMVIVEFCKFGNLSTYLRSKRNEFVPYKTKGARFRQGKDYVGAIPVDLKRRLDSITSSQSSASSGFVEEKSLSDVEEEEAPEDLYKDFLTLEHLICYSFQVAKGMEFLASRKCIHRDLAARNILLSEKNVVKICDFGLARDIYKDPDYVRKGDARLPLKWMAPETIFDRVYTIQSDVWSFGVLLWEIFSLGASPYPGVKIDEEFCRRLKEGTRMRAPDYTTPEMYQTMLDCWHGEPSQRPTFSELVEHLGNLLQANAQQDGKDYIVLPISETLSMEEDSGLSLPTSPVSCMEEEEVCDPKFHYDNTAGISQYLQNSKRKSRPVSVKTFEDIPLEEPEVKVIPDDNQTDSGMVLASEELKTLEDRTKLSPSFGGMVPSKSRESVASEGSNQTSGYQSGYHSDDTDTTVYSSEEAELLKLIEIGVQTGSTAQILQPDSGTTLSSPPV

Take `COC[C@H]1CCCN1C(=O)N1CCN(c2ccc(-c3cc(-c4cnn(C)c4)cn4ncc(C#N)c34)cn2)CC1` [Example 110, (R)-4-(6-(4-(2-(methoxymethyl)pyrrolidine-1-carbonyl)piperazin-1-yl)pyridin-3-yl)-6-(1-methyl-1H-pyrazol-4-yl)pyrazolo[1,5-a]pyridine-3-carbonitrile]: under “10% FBS”, the IC50 is 1.31 µM. The same measure, in the same setting: the value for `Cn1cc(-c2cc(-c3ccc(N4CCN(C(=O)C5(O)CC5)CC4)nc3)c3c(C#N)cnn3c2)cn1` [Example 81, 4-(6-(4-(1-hydroxycyclopropane-1-carbonyl)piperazin-1-yl)pyridin-3-yl)-6-(1-methyl-1H-pyrazol-4-yl)pyrazolo[1,5-a]pyridine-3-carbonitrile] was 0.762 µM. On the same count and under the same terms, the value for `Cn1cc(-c2cc(-c3ccc(N4CCN(C(=O)N[C@H]5CCOC5)CC4)nc3)c3c(C#N)cnn3c2)cn1` [Example 105, (S)-4-(5-(3-cyano-6-(1-methyl-1H-pyrazol-4-yl)pyrazolo[1,5-a]pyridin-4-yl)pyridin-2-yl)-N-(tetrahydrofuran-3-yl)piperazine-1-carboxamide] was 1.14 µM. `CCC(CC)C(=O)N1CC2(CCN(c3ccc(-c4cc(-c5cnn(C)c5)cn5ncc(C#N)c45)cn3)CC2)C1` [Example 496, 4-(6-(2-(2-ethylbutanoyl)-2,7-diazaspiro[3.5]nonan-7-yl)pyridin-3-yl)-6-(1-methyl-1H-pyrazol-4-yl)pyrazolo[1,5-a]pyridine-3-carbonitrile] came in with a 50% inhibitory concentration (IC50) of 2.12 µM. `C[C@@H](CO)Cn1cc(-c2cc(-c3ccc(N4CCN(C(=O)CC(C)(C)C)CC4)cc3)c3c(C#N)cnn3c2)cn1` [Example 306, (R)-4-(4-(4-(3,3-dimethylbutanoyl)piperazin-1-yl)phenyl)-6-(1-(3-hydroxy-2-methylpropyl)-1H-pyrazol-4-yl)pyrazolo[1,5-a]pyridine-3-carbonitrile]: the concentration for half-maximal inhibition (IC50) (10% FBS) was found to be 0.88 µM. This lies in the sub-micromolar range. `Cn1cc(-c2cc(-c3ccc(N4CCC(C(=O)N5CCCC5)CC4)nc3)c3c(C#N)cnn3c2)cn1` [Example 248, 6-(1-methyl-1H-pyrazol-4-yl)-4-(6-(4-(pyrrolidine-1-carbonyl)piperidin-1-yl)pyridin-3-yl)pyrazolo[1,5-a]pyridine-3-carbonitrile] displayed a half-maximal inhibitory concentration (IC50) (10% FBS) of 1.24 µM. On to `CC(C)n1cc(CN2CCN(c3ccc(-c4cc(-c5cnn(C)c5)cn5ncc(C#N)c45)cn3)CC2)cn1` [Example 445, 4-(6-(4-((1-isopropyl-1H-pyrazol-4-yl)methyl)piperazin-1-yl)pyridin-3-yl)-6-(1-methyl-1H-pyrazol-4-yl)pyrazolo[1,5-a]pyridine-3-carbonitrile], for which half-maximal inhibition (IC50) was put at 1.66 µM.

As to `Cn1cc(-c2cc(-c3ccc(N4CCN(C(=O)[C@H](O)c5cccc(Cl)c5)CC4)nc3)c3ccnn3c2)cn1` [Example 322, (R)-2-(3-chlorophenyl)-2-hydroxy-1-(4-(5-(6-(1-methyl-1H-pyrazol-4-yl)pyrazolo[1,5-a]pyridin-4-yl)pyridin-2-yl)piperazin-1-yl)ethanone], the half-inhibitory concentration (IC50) (10% FBS) worked out at 4.86 µM.

Consider `Cn1cc(-c2cc(-c3ccc(N4CC[C@@H](C(=O)N5CCCC5)C4)nc3)c3c(C#N)cnn3c2)cn1` [Example 260, (R)-6-(1-methyl-1H-pyrazol-4-yl)-4-(6-(3-(pyrrolidine-1-carbonyl)pyrrolidin-1-yl)pyridin-3-yl)pyrazolo[1,5-a]pyridine-3-carbonitrile], for which, where the note is “10% FBS”, the IC50 was at least 5 µM. Regarding `Cc1cncc(CN2CCN(c3ccc(-c4cc(-c5cnn(C)c5)cn5ncc(C#N)c45)cn3)CC2)n1` [Example 431, 6-(1-methyl-1H-pyrazol-4-yl)-4-(6-(4-((6-methylpyrazin-2-yl)methyl)piperazin-l-yl)pyridin-3-yl)pyrazolo[1,5-a]pyridine-3-carbonitrile], inhibition was half-maximal at 1.5 µM (IC50). The same measure, in the same setting: the same measure for `Cn1cc(-c2cc(-c3ccc(N4CCN(Cc5nccn5C)CC4)nc3)c3c(C#N)cnn3c2)cn1` [Example 437, 4-(6-(4-((1-methyl-1H-imidazol-2-yl)methyl)piperazin-1-yl)pyridin-3-yl)-6-(1-methyl-1H-pyrazol-4-yl)pyrazolo[1,5-a]pyridine-3-carbonitrile]: 1.97 µM.
